Test results published in PubChem BioAssay AID328 (DTP/NCI, 2004).
Several values for one entry are separate records, joined by “and”; a condition that tells them apart may be missing. Identical values can stand only once. Inconclusive results and toxic doses are left out. How the source made its calls: active means survival T/C of 150% or more; inactive means T/C below 125% in these data.

Tested on: BDF1 mice, P388 leukemia ip, median survival T/C
Assay: NCI In Vivo Anticancer Drug Screen. Data for tumor model P388 Leukemia (intraperitoneal) in B6D2F1 (BDF1) mice
Settings: endpoint: median survival time, higher = longer survival
Experimental: The antitumor activity of compounds was measured in mice bearing transplantable tumors. Survival or tumor size were measured and the results are expressed as the measurement made in the treated group (T) divided by the measurement made in the vehicle treated control group (C). The tumor model used in this assay is P388 Leukemia (intraperitoneal) in B6D2F1 (BDF1) mice

[1] = dose: 50.0 mg/kg/injection, schedule: Q01DX009 (ip), vehicle: saline with Tween-80
[2] = dose: 100.0 mg/kg/injection, schedule: Q01DX009 (ip), vehicle: saline with Tween-80
[3] = dose: 200.0 mg/kg/injection, schedule: Q01DX009 (ip), vehicle: saline with Tween-80
[4] = dose: 25.0 mg/kg/injection, schedule: Q01DX009 (ip), vehicle: saline with Tween-80
[5] = dose: 6.25 mg/kg/injection, schedule: Q01DX009 (ip), vehicle: saline with Tween-80
[6] = dose: 12.5 mg/kg/injection, schedule: Q01DX009 (ip), vehicle: saline with Tween-80
[7] = dose: 50.0 mg/kg/injection, schedule: Q04DX003 (ip), vehicle: saline with Tween-80
[8] = dose: 100.0 mg/kg/injection, schedule: Q04DX003 (ip), vehicle: saline with Tween-80
[9] = dose: 100.0 mg/kg/injection, schedule: Q01DX009 (ip), vehicle: saline
[10] = dose: 50.0 mg/kg/injection, schedule: Q01DX009 (ip), vehicle: saline
[11] = dose: 100.0 mg/kg/injection, schedule: Q01DX001 (ip), vehicle: Klucel (hydroxypropylcellulose) (HPC)
[12] = dose: 25.0 mg/kg/injection, schedule: Q04DX003 (ip), vehicle: Klucel (hydroxypropylcellulose) (HPC)

Measured: T/C

N#CSCc1nc2ccc(Cl)cc2c(-c2ccccc2)[n+]1[O-]
inactive: [1] 100 % of control | [2] 114 % of control | [3] 114 % of control

O=C1OC(=O)c2c(Br)c(Br)c(Br)c(Br)c21
inactive: [4] 109 % of control | dose: 56.25 mg/kg/injection, schedule: Q01DX009 (ip), vehicle: saline with Tween-80 90 % of control | dose: 75.0 mg/kg/injection, schedule: Q01DX009 (ip), vehicle: saline with Tween-80 113 % of control | dose: 150.0 mg/kg/injection, schedule: Q01DX009 (ip), vehicle: saline with Tween-80 109 % of control

COc1ccc2c(c1)NC(c1ccccc1C(=O)O)c1cccn1-2 (configuration not stated)
inactive: [5] 90 % of control | [6] 97 % of control | [4] 97 % of control

Cn1nc(N)c2ncc(C(Cl)(Cl)Cl)nc21
inactive: [4] 91 % of control | [7] 105 % of control | [8] 90 % of control

CCO/C=C1\SC(=S)N(c2ccco2)C1=O
active: dose: 22.0 mg/kg/injection, schedule: Q01DX009 (ip), vehicle: saline with Tween-80 150 % of control
inactive: dose: 5.56 mg/kg/injection, schedule: Q01DX009 (ip), vehicle: saline with Tween-80 104 % of control | dose: 8.33 mg/kg/injection, schedule: Q01DX009 (ip), vehicle: saline with Tween-80 104 % of control | [6] 108 % of control | dose: 18.7 mg/kg/injection, schedule: Q01DX009 (ip), vehicle: saline with Tween-80 116 % of control | dose: 30.0 mg/kg/injection, schedule: Q01DX009 (ip), vehicle: saline 116 % of control | dose: 44.0 mg/kg/injection, schedule: Q01DX009 (ip), vehicle: saline 100 % of control | [1] 100 % of control | dose: 66.0 mg/kg/injection, schedule: Q01DX009 (ip), vehicle: saline 116 % of control | [9] 116 % of control

Cc1ncc(O)c(CO)c1O
inactive: [10] 110 % of control | [9] 94 % of control | dose: 200.0 mg/kg/injection, schedule: Q01DX009 (ip), vehicle: saline 99 % of control | dose: 400.0 mg/kg/injection, schedule: Q01DX009 (ip), vehicle: saline 107 % of control

CC(Br)C1(c2cccc([N+](=O)[O-])c2)OCCO1 (configuration not stated)
inactive: dose: 25.0 mg/kg/injection, schedule: Q01DX001 (ip), vehicle: Klucel (hydroxypropylcellulose) (HPC) 100 % of control | dose: 50.0 mg/kg/injection, schedule: Q01DX001 (ip), vehicle: Klucel (hydroxypropylcellulose) (HPC) 104 % of control | [11] 90 % of control and 100 % of control

CC1=C(Br)C(=O)C(c2c(C)c(Br)c(C)c([N+](=O)[O-])c2C)=C(Br)C1=O
inactive: [11] 100 % of control | dose: 200.0 mg/kg/injection, schedule: Q01DX001 (ip), vehicle: Klucel (hydroxypropylcellulose) (HPC) 110 % of control | dose: 400.0 mg/kg/injection, schedule: Q01DX001 (ip), vehicle: Klucel (hydroxypropylcellulose) (HPC) 100 % of control

Cc1c2oc3c(C)ccc(C(=O)NCCCc4ccccc4)c3nc-2c(C(=O)NCCCc2ccccc2)c(N)c1=O
inactive: dose: 100.0 mg/kg/injection, schedule: Q04DX002 (ip), vehicle: DMSO 100 % of control | dose: 200.0 mg/kg/injection, schedule: Q04DX002 (ip), vehicle: DMSO 90 % of control

C=C1C(=O)O[C@@H]2C[C@@H](C)[C@@H]3C=CC(=O)[C@@]3(C)[C@@H](O)[C@H]12
inactive: dose: 0.88 mg/kg/injection, schedule: Q01DX009 (ip), vehicle: saline 109 % of control | dose: 1.3 mg/kg/injection, schedule: Q01DX009 (ip), vehicle: saline 113 % of control | dose: 2.0 mg/kg/injection, schedule: Q01DX009 (ip), vehicle: saline + alcohol 116 % of control | dose: 4.0 mg/kg/injection, schedule: Q01DX010 (ip), vehicle: other 116 % of control | dose: 5.0 mg/kg/injection, schedule: Q01DX009 (ip), vehicle: saline + alcohol 116 % of control | dose: 5.0 mg/kg/injection, schedule: Q01DX009 (ip), vehicle: saline with Tween-80 109 % of control | dose: 5.0 mg/kg/injection, schedule: Q01DX010 (ip), vehicle: other 112 % of control | dose: 6.0 mg/kg/injection, schedule: Q01DX010 (ip), vehicle: other 116 % of control | dose: 8.0 mg/kg/injection, schedule: Q01DX010 (ip), vehicle: other 116 % of control
active: dose: 8.0 mg/kg/injection, schedule: Q01DX009 (ip), vehicle: alcohol 163 % of control | dose: 8.0 mg/kg/injection, schedule: Q01DX009 (ip), vehicle: saline + alcohol 168 % of control

CCC1CCN2CCc3c([nH]c4ccccc34)C(C(=O)OC)(c3cc4c(cc3OC)N(C)C3C(O)(C(=O)OC)C(OC(C)=O)C5(CC)CCCN6CCC43C65)CC2C1 (configuration not stated)
inactive: dose: 0.06 mg/kg/injection, schedule: Q01DX009 (ip), vehicle: water 95 % of control | dose: 0.12 mg/kg/injection, schedule: Q01DX009 (ip), vehicle: water 100 % of control | dose: 0.25 mg/kg/injection, schedule: Q01DX009 (ip), vehicle: water 104 % of control | dose: 0.5 mg/kg/injection, schedule: Q01DX009 (ip), vehicle: water 95 % of control | dose: 1.0 mg/kg/injection, schedule: Q01DX009 (ip), vehicle: water 86 % of control and 104 % of control | dose: 2.0 mg/kg/injection, schedule: Q01DX009 (ip), vehicle: water 90 % of control and 95 % of control | dose: 4.0 mg/kg/injection, schedule: Q01DX009 (ip), vehicle: water 90 % of control | dose: 8.0 mg/kg/injection, schedule: Q01DX009 (ip), vehicle: water 95 % of control

CCC(C#N)C1=CCCCCC1 (configuration not stated)
inactive: dose: 25.0 mg/kg/injection, schedule: Q04DX003 (ip), vehicle: saline with Tween-80 109 % of control | [7] 121 % of control | [8] 118 % of control

NC(CC(=O)CCl)C(=O)O (configuration not stated)
active: dose: 8.25 mg/kg/injection, schedule: Q04DX003 (ip), vehicle: saline with Tween-80 154 % of control | dose: 12.5 mg/kg/injection, schedule: Q04DX003 (ip), vehicle: Klucel (hydroxypropylcellulose) (HPC) 165 % of control | dose: 12.5 mg/kg/injection, schedule: Q04DX003 (ip), vehicle: saline with Tween-80 172 % of control | [12] 165 % of control
inactive: dose: 18.75 mg/kg/injection, schedule: Q04DX003 (ip), vehicle: saline with Tween-80 109 % of control

CC(=O)[O][Hg][CH]1CCC2OC1CC[CH]2[Hg][O]C(C)=O (configuration not stated)
inactive: dose: 1.56 mg/kg/injection, schedule: Q01DX009 (ip), vehicle: saline with Tween-80 101 % of control | dose: 3.13 mg/kg/injection, schedule: Q01DX009 (ip), vehicle: saline with Tween-80 113 % of control | [5] 111 % of control | [6] 104 % of control

CC1=C(CO)C(=O)O[C@@H]([C@@H](C)[C@H]2CC[C@H]3[C@@H]4C[C@H]5O[C@]56[C@@H](O)C=CC(=O)[C@]6(C)[C@H]4CC[C@]23C)C1
inactive: dose: 5.0 mg/kg/injection, schedule: Q01DX010 (ip), vehicle: steriod suspending solution 95 % of control | dose: 10.0 mg/kg/injection, schedule: Q01DX010 (ip), vehicle: steriod suspending solution 100 % of control | dose: 20.0 mg/kg/injection, schedule: Q01DX010 (ip), vehicle: steriod suspending solution 90 % of control | dose: 40.0 mg/kg/injection, schedule: Q01DX010 (ip), vehicle: steriod suspending solution 104 % of control

CC[C@@H](c1ccc(O)cc1)[C@@H](CC)c1ccc(O)cc1
inactive: [10] 90 % of control | [9] 109 % of control | dose: 100.0 mg/kg/injection, schedule: Q04DX003 (ip), vehicle: alcohol 94 % of control | dose: 200.0 mg/kg/injection, schedule: Q04DX003 (ip), vehicle: alcohol 100 % of control

Clc1ccc(CN2CCCN(Cc3ccc(Cl)c(Cl)c3)S2)cc1Cl
inactive: [1] 101 % of control | [2] 97 % of control | [3] 90 % of control

CCOC(=O)C[Si](C)(C)C
inactive: [12] 99 % of control | dose: 50.0 mg/kg/injection, schedule: Q04DX003 (ip), vehicle: Klucel (hydroxypropylcellulose) (HPC) 99 % of control | dose: 100.0 mg/kg/injection, schedule: Q04DX003 (ip), vehicle: Klucel (hydroxypropylcellulose) (HPC) 97 % of control | dose: 200.0 mg/kg/injection, schedule: Q04DX003 (ip), vehicle: Klucel (hydroxypropylcellulose) (HPC) 101 % of control | dose: 400.0 mg/kg/injection, schedule: Q04DX003 (ip), vehicle: Klucel (hydroxypropylcellulose) (HPC) 109 % of control
